# In patent US11931424B2, “Combination MCL-1 inhibitors with anti-body drug conjugates” (Gilead Sciences, Inc., priority 2021, dated 2024):
# Tested on: panel of breast cancer cell lines
# Experiment: Compound A with targeted agents and chemotherapies, 72-hour in vitro proliferation assays
# Format: cell-based
# Conditions: 72-hour proliferation
# [1] = AU565 cell line, compound A × partner
# [2] = BT-20 cell line, compound A × partner
# [3] = BT-474 cell line, compound A × partner
# [4] = BT-549 cell line, compound A × partner
# [5] = CAL-51 cell line, compound A × partner
# [6] = CAL-85-1 cell line, compound A × partner
# [7] = CAL-120 cell line, compound A × partner
# [8] = CAL-148 cell line, compound A × partner
# [9] = CAMA-1 cell line, compound A × partner
# [10] = DU-4475 cell line, compound A × partner
# [11] = EVSA-T cell line, compound A × partner
# [12] = HCC1143 cell line, compound A × partner
# [13] = MCF7 cells, Compound A × partner agent
# [14] = MDA-MB-175-VII cells, Compound A × partner agent
# [15] = MDA-MB-231 cells, Compound A × partner agent
# [16] = MDA-MB-361 cells, Compound A × partner agent
# [17] = MDA-MB-436 cells, Compound A × partner agent
# [18] = MDA-MB-453 cells, Compound A × partner agent
# [19] = MDA-MB-468 cells, Compound A × partner agent
# [20] = SK-BR-3 cells, Compound A × partner agent
# [21] = SUM159PT cells, combination of compound A with the named agent
# [22] = T47D cells, combination of compound A with the named agent
# [23] = ZR-75-1 cells, combination of compound A with the named agent
# [24] = ZR-75-30 cells, combination of compound A with the named agent
smiles,measurement,setting,value
N.N.[Cl][Pt][Cl] [Cisplatin],Best CI,[1],0.79
same,Bliss Volume,[1],7.67
same,HSA volume,[1],−6.49
same,Loewe Volume,[1],−5.19
same,Synergy Score,[1],1.66
same,Best CI,[2],0.90
same,Bliss Volume,[2],13.49
same,HSA volume,[2],−0.68
same,Loewe Volume,[2],−2.71
same,Synergy Score,[2],2.27
same,Best CI,[3],0.47
same,Bliss Volume,[3],−2.63
same,HSA volume,[3],−4.63
same,Loewe Volume,[3],−4.42
same,Synergy Score,[3],2.85
same,Best CI,[4],1.01
same,Bliss Volume,[4],7.35
same,HSA volume,[4],2.86
same,Loewe Volume,[4],4.16
same,Synergy Score,[4],6.80
same,Best CI,[5],0.48
same,Bliss Volume,[5],7.18
same,HSA volume,[5],4.36
same,Loewe Volume,[5],6.98
same,Synergy Score,[5],9.30
same,Best CI,[6],1.09
same,Bliss Volume,[6],6.84
same,HSA volume,[6],4.63
same,Loewe Volume,[6],4.66
same,Synergy Score,[6],6.29
same,Best CI,[7],0.19
same,Bliss Volume,[7],1.51
same,HSA volume,[7],0.51
same,Loewe Volume,[7],1.48
same,Synergy Score,[7],1.13
same,Best CI,[8],0.13
same,Bliss Volume,[8],19.20
same,HSA volume,[8],19.03
same,Loewe Volume,[8],18.76
same,Synergy Score,[8],37.06
same,Best CI,[9],0.23
same,Bliss Volume,[9],16.63
same,HSA volume,[9],9.61
same,Loewe Volume,[9],9.28
same,Synergy Score,[9],18.49
same,Best CI,[10],0.29
same,Bliss Volume,[10],14.10
same,HSA volume,[10],5.48
same,Loewe Volume,[10],5.54
same,Synergy Score,[10],7.00
same,Best CI,[11],0.39
same,Bliss Volume,[11],20.06
same,HSA volume,[11],3.60
same,Loewe Volume,[11],1.90
same,Synergy Score,[11],2.53
same,Best CI,"HCC38, compound A × partner",0.60
same,Best CI Level,"HCC38, compound A × partner",115
same,Bliss Volume,"HCC38, compound A × partner",8.46
same,HSA volume,"HCC38, compound A × partner",3.08
same,Loewe Volume,"HCC38, compound A × partner",2.06
same,Synergy Score,"HCC38, compound A × partner",6.47
same,Best CI,"HCC70, compound A × partner",0.45
same,Best CI Level,"HCC70, compound A × partner",175
same,Bliss Volume,"HCC70, compound A × partner",18.00
same,HSA volume,"HCC70, compound A × partner",4.42
same,Loewe Volume,"HCC70, compound A × partner",2.24
same,Synergy Score,"HCC70, compound A × partner",9.16
same,Best CI,[12],0.39
same,Bliss Volume,[12],−0.20
same,HSA volume,[12],−5.78
same,Loewe Volume,[12],−3.31
same,Synergy Score,[12],2.45
same,Best CI,"HCC1569, compound A × partner",0.43
same,Best CI Level,"HCC1569, compound A × partner",25
same,Bliss Volume,"HCC1569, compound A × partner",1.33
same,HSA volume,"HCC1569, compound A × partner",−1.41
same,Loewe Volume,"HCC1569, compound A × partner",−2.74
same,Synergy Score,"HCC1569, compound A × partner",1.82
same,Best CI,"HCC1806, compound A × partner",0.22
same,Best CI Level,"HCC1806, compound A × partner",70
same,Bliss Volume,"HCC1806, compound A × partner",8.46
same,HSA volume,"HCC1806, compound A × partner",3.81
same,Loewe Volume,"HCC1806, compound A × partner",5.93
same,Synergy Score,"HCC1806, compound A × partner",7.76
same,Best CI,"HCC1937, compound A × partner",1.07
same,Best CI Level,"HCC1937, compound A × partner",105
same,Bliss Volume,"HCC1937, compound A × partner",1.32
same,HSA volume,"HCC1937, compound A × partner",−1.15
same,Loewe Volume,"HCC1937, compound A × partner",−0.59
same,Synergy Score,"HCC1937, compound A × partner",1.75
same,Best CI,"HCC1954, compound A × partner",0.84
same,Best CI Level,"HCC1954, compound A × partner",180
same,Bliss Volume,"HCC1954, compound A × partner",5.89
same,HSA volume,"HCC1954, compound A × partner",−0.89
same,Loewe Volume,"HCC1954, compound A × partner",−1.88
same,Synergy Score,"HCC1954, compound A × partner",5.58
same,Best CI,"HCC2218, compound A × partner",0.54
same,Best CI Level,"HCC2218, compound A × partner",165
same,Bliss Volume,"HCC2218, compound A × partner",9.34
same,HSA volume,"HCC2218, compound A × partner",2.71
same,Loewe Volume,"HCC2218, compound A × partner",−0.66
same,Synergy Score,"HCC2218, compound A × partner",7.99
same,Best CI,"HDQ-P1, compound A × partner",0.60
same,Best CI Level,"HDQ-P1, compound A × partner",30
same,Bliss Volume,"HDQ-P1, compound A × partner",0.53
same,HSA volume,"HDQ-P1, compound A × partner",−0.23
same,Loewe Volume,"HDQ-P1, compound A × partner",0.64
same,Synergy Score,"HDQ-P1, compound A × partner",1.46
same,Best CI,"HMC-1-8, compound A × partner",0.35
same,Best CI Level,"HMC-1-8, compound A × partner",180
same,Bliss Volume,"HMC-1-8, compound A × partner",20.03
same,HSA volume,"HMC-1-8, compound A × partner",7.01
same,Loewe Volume,"HMC-1-8, compound A × partner",6.38
same,Synergy Score,"HMC-1-8, compound A × partner",14.62
same,Best CI,"JIMT-1, compound A × partner",0.61
same,Best CI Level,"JIMT-1, compound A × partner",20
same,Bliss Volume,"JIMT-1, compound A × partner",0.69
same,HSA volume,"JIMT-1, compound A × partner",−1.64
same,Loewe Volume,"JIMT-1, compound A × partner",−0.53
same,Synergy Score,"JIMT-1, compound A × partner",1.21
same,Best CI,"KPL-1, compound A × partner",0.76
same,Best CI Level,"KPL-1, compound A × partner",110
same,Bliss Volume,"KPL-1, compound A × partner",−0.41
same,HSA volume,"KPL-1, compound A × partner",0.95
same,Loewe Volume,"KPL-1, compound A × partner",0.45
same,Synergy Score,"KPL-1, compound A × partner",4.51
same,Best CI,[13],0.45
same,Best CI Level,[13],150
same,Bliss Volume,[13],11.15
same,HSA volume,[13],4.64
same,Loewe Volume,[13],3.51
same,Synergy Score,[13],6.98
same,Best CI,[14],0.49
same,Best CI Level,[14],60
same,Bliss Volume,[14],9.70
same,HSA volume,[14],−1.47
same,Loewe Volume,[14],2.49
same,Synergy Score,[14],4.03
same,Best CI,[15],0.34
same,Best CI Level,[15],70
same,Bliss Volume,[15],5.98
same,HSA volume,[15],4.74
same,Loewe Volume,[15],6.47
same,Synergy Score,[15],4.48
same,Best CI,[16],0.81
same,Best CI Level,[16],165
same,Bliss Volume,[16],3.24
same,HSA volume,[16],−1.91
same,Loewe Volume,[16],−2.31
same,Synergy Score,[16],3.36
same,Best CI,[17],1.18
same,Best CI Level,[17],120
same,Bliss Volume,[17],2.08
same,HSA volume,[17],1.62
same,Loewe Volume,[17],1.58
same,Synergy Score,[17],2.45
same,Best CI,[18],0.34
same,Best CI Level,[18],70
same,Bliss Volume,[18],13.82
same,HSA volume,[18],4.06
same,Loewe Volume,[18],4.70
same,Synergy Score,[18],9.66
same,Best CI,[19],0.53
same,Best CI Level,[19],105
same,Bliss Volume,[19],27.91
same,HSA volume,[19],5.89
same,Loewe Volume,[19],4.42
same,Synergy Score,[19],8.65
same,Best CI,[20],0.14
same,Best CI Level,[20],150
same,Bliss Volume,[20],19.53
same,HSA volume,[20],6.00
same,Loewe Volume,[20],5.11
same,Synergy Score,[20],10.90
same,Best CI,[21],0.79
same,Best CI Level,[21],20
same,Bliss Volume,[21],−1.91
same,HSA volume,[21],−4.36
same,Loewe Volume,[21],−4.20
same,Synergy Score,[21],0.41
same,Best CI,[22],0.79
same,Best CI Level,[22],80
same,Bliss Volume,[22],−0.02
same,HSA volume,[22],0.03
same,Loewe Volume,[22],0.73
same,Synergy Score,[22],3.05
same,Best CI,[23],0.88
same,Best CI Level,[23],155
same,Bliss Volume,[23],9.45
same,HSA volume,[23],7.38
same,Loewe Volume,[23],8.42
same,Synergy Score,[23],12.40
same,Best CI,[24],0.24
same,Best CI Level,[24],95
same,Bliss Volume,[24],14.77
same,HSA volume,[24],8.48
same,Loewe Volume,[24],9.66
same,Synergy Score,[24],16.44
